# Reference: PMC9650428, “Mutagenesis and functional analysis of SotB: A multidrug transporter of the major facilitator superfamily from Escherichia coli” (Frontiers in Microbiology, 2022)
# Where a chain is given by its changes, count along the chain named.
# Columns and labels:
# [1] = target: T1, SotB W119A (Escherichia coli, UniProt P31122, W119A); assay: SPR affinity assay, SotB variant W119A; conditions: read-out: KD, binding affinity with W119A
# T1 construct: The full-length sotB and lapC genes from the E. coli MG1655 genome were subcloned into the cloning vector pET28a; 8xHis (C); made in house; host or cells: E. coli C43(DE3)
# T1 sequence (P31122 1-396 W119A): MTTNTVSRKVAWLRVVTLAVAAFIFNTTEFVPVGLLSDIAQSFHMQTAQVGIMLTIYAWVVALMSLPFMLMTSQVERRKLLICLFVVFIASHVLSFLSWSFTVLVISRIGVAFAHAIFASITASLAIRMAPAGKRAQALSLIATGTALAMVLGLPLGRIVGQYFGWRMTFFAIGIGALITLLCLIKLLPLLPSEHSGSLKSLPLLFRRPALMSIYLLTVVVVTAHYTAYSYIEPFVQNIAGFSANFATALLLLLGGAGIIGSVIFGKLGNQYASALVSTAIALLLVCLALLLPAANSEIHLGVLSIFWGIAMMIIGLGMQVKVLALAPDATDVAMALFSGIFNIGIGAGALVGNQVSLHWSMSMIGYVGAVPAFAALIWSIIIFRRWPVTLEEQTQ
# Protocol: The instrument used in surface plasmon resonance (SPR) affinity assays was OpenSPR (Nicoya, Canada) and the chip used was COOH sensor chip (Nicoya, Canada). SotB and its variants were as ligands. IPTG, L-arabinose, D-xylose, D-glucose, D-fructose, and D-mannose were as small molecules. Using HSB-EP buffer (10 mM HEPES, 150 mM NaCl, 3 mM EDTA, 0.005% Tween-20, pH7.4) as test buffer and setting flow rate 150 μl/min after installed COOH chip according to OpenSPRTM instrument standard operating procedure. After the signal baseline was reached, loading 200 μl 80% isopropyl alcohol and ran for 10 s to drain bubbles. After reaching baseline, the sample ring was rinsed with HSB-EP buffer and emptied with air. After the signal reached the baseline, loading 200 μl EDC (400 mM, Sigma)/NHS (100 mM, Sigma; 1:1) solution with a flow rate 20 μl/min for 4 min. Then, loading 200 μl ligand (SotB/SotB variants) diluted by the activation buffer (sodium acetate, 10 mM, pH3.5) and ran for 4 min (20 μl/min). Then the sample ring was rinsed with HSB-EP buffer and emptied with air. Loading 200 μl 1 M ethanolamine (Sigma) blocking solution (20 μl/min, 4 min), rinsed the sample ring with HSB-EP buffer, and emptied the sample ring with air. Observing baseline for 5 min to ensure stability. […]
# [2] = target: T2, SotB N343A (Escherichia coli, UniProt P31122, N343A); assay: SPR affinity assay, SotB variant N343A; type: binding
# T2 construct: The full-length sotB and lapC genes from the E. coli MG1655 genome were subcloned into the cloning vector pET28a; 8xHis (C); made in house; host or cells: E. coli C43(DE3)
# T2 sequence (P31122 1-396 N343A): T1 sequence (P31122 1-396 W119A) with A119W, N343A
# Protocol: (§1) The instrument used in surface plasmon resonance (SPR) affinity assays was OpenSPR (Nicoya, Canada) and the chip used was COOH sensor chip (Nicoya, Canada). SotB and its variants were as ligands. IPTG, L-arabinose, D-xylose, D-glucose, D-fructose, and D-mannose were as small molecules. Using HSB-EP buffer (10 mM HEPES, 150 mM NaCl, 3 mM EDTA, 0.005% Tween-20, pH7.4) as test buffer and setting flow rate 150 μl/min after installed COOH chip according to OpenSPRTM instrument standard operating procedure. After the signal baseline was reached, loading 200 μl 80% isopropyl alcohol and ran for 10 s to drain bubbles. After reaching baseline, the sample ring was rinsed with HSB-EP buffer and emptied with air. After the signal reached the baseline, loading 200 μl EDC (400 mM, Sigma)/NHS (100 mM, Sigma; 1:1) solution with a flow rate 20 μl/min for 4 min. Then, loading 200 μl ligand (SotB/SotB variants) diluted by the activation buffer (sodium acetate, 10 mM, pH3.5) and ran for 4 min (20 μl/min). Then the sample ring was rinsed with HSB-EP buffer and emptied with air. Loading 200 μl 1 M ethanolamine (Sigma) blocking solution (20 μl/min, 4 min), rinsed the sample ring with HSB-EP buffer, and emptied the sample ring with air. Observing baseline for 5 min to ensure stability. The small molecules were diluted with PBS buffer (2 mM of KH2PO4, 10 mM of Na2HPO4, 2.7 mM of KCl, and 137 mM of NaCl at pH 7.4), and the concentration was shown in the experimental results. The flow rate for small molecules was performed at 20 μl/min. The binding time of small molecule and ligand was 240 s, and the dissociation was 240 s. The analysis software used for the experimental results was TraceDrawer, and the analysis method was one-to-one analysis model.
# [3] = system: sotB-deletion E. coli MG1655 strain; assay: Growth curve (L-arabinose inhibition) assay, sotB-deletion MG1655; type: cell-based, Escherichia coli
# From the text: In the process of sotB gene knockout, two plasmids were introduced into E. coli MG1655 strain: the plasmid pEcCas expressing Cas9 protein (kanamycin resistance) and the plasmid pEcgRNA/sotB expressing related gRNA (spectinomycin resistance). The pEcCas plasmid was successfully eliminated in this study. […] Thus, the sotB-deletion strain has resistance to spectinomycin. In order to carry out the related L-arabinose inhibition assay more strictly, the same plasmid (pEcgRNA/sotB) was then transformed into intact E. coli MG1655 cells, and the growth conditions of the two strains were measured as follows: The E. coli MG1655 cells (intact cells and sotB-deletion cells) were grown in liquid LB medium containing spectinomycin (50 μg/ml) at 37°C for overnight. The cells were then diluted to an OD600 value of 0.8 with liquid LB medium containing spectinomycin (50 μg/ml). Then, the cells were further diluted 1,000 times with liquid LB medium containing spectinomycin (50 μg/ml). The diluted cells were added to a 96-well plate (200 μl/well). Then, L-arabinose was added with final concentrations of 0 μM, 10 μM, 100 μM, 1 mM, 10 mM, and 100 mM, respectively. The 96-well plate was incubated at 37°C, and the OD600 value was measured every 1 h with a microplate reader. […]
# [4] = target: T3, SotB H115A (Escherichia coli, UniProt P31122, H115A); assay: SPR affinity assay, SotB variant H115A; type: binding
# T3 construct: The full-length sotB and lapC genes from the E. coli MG1655 genome were subcloned into the cloning vector pET28a; 8xHis (C); made in house; host or cells: E. coli C43(DE3)
# T3 sequence (P31122 1-396 H115A): T1 sequence (P31122 1-396 W119A) with H115A, A119W
# Protocol: as §1
structure (smiles),measurement,setting,value
OC1OC[C@H](O)[C@H](O)[C@H]1O (mixture of isomers) [L-arabinose],Kd,[1],4.9 mM
same,"Binding affinity of N343A, fold lower than the wild-type protein",[2]; N343A vs wild-type SotB,3.5 fold
same,Kd,"[2]; SotB variant N343A, read-out: KD, binding affinity with N343A",14.5 mM
same,Effect on growth (OD600 growth curve),"[3]; sotB-deletion MG1655, 10 mM final concentration",significantly inhibit
same,Effect on growth (OD600 growth curve),"[3]; sotB-deletion MG1655, 100 mM final concentration",significantly inhibit
same,"Binding affinity of H115A, fold lower than the wild-type protein",[4]; H115A vs wild-type SotB,3.2 fold
same,Kd,"[4]; SotB variant H115A, read-out: KD, binding affinity with H115A",13.3 mM
